In patent US10940139B2, “Compounds that interact with the Ras superfamily for the treatment of cancers, inflammatory diseases, rasopathies, and fibrotic disease” (Shy Therapeutics LLC, priority 2017, dated 2021):
Read-outs that look alike come from different tables or passages of the source.

How the values were obtained:
Assay in all cases: Ras GTP binding domain inhibition assay (labeled GTP)
KRas G12D mutant protein = KRas G12D mutant protein (Homo sapiens (Human), UniProt P01116, G12D); conditions: 20 μM compound
Chain of KRas G12D mutant protein (P01116-2 other isoform, or with tags, fused parts or gaps G12D): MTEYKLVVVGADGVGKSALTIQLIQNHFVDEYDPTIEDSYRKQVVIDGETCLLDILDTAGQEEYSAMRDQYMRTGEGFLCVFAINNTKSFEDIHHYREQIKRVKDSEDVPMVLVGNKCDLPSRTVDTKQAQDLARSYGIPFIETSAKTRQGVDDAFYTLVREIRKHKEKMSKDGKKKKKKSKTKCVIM

KRas G12C mutant = KRas G12C mutant (Homo sapiens (Human), UniProt P01116, G12C); conditions: 20 μM compound
Chain of KRas G12C mutant (P01116-2 other isoform, or with tags, fused parts or gaps G12C): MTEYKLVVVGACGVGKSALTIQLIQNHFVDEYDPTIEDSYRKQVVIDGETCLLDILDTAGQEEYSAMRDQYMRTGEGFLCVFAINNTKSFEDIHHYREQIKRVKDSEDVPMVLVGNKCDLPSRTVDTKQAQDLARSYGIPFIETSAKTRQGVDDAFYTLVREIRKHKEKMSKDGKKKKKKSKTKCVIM
In short: (§1)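 Ni-plate capture of His-KRas (3-10 μg/ml, o/n, 4° C); Tris pH 7.5/MgCl2/DTT buffer, 1% DMSO. Cpd 20 μM or titration, 3 h RT. Cy3/Cy5-GTP 45 min RT, wash, fluorescence of bound GTP.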

[1] = target: KRas G12C/Q61H double mutant (Homo sapiens (Human), UniProt P01116, G12C/Q61H); conditions: 20 μM compound; read-out: % Inhibition at 20 μM KRas G12C Q61H
Chain of KRas G12C/Q61H double mutant (P01116-2 other isoform, or with tags, fused parts or gaps G12C/Q61H): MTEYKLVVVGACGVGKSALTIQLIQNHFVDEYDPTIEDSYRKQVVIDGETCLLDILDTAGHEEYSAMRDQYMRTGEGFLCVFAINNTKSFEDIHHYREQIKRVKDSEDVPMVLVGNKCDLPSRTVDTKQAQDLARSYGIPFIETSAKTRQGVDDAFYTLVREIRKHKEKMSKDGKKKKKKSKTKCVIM
In short: as §1

[2] = target: KRas G12D/Q61H double mutant (Homo sapiens (Human), UniProt P01116, G12D/Q61H); conditions: for inhibition at 20 µM: 20 μM compound; for IC50: serial dilution, read-out: KRas G12D Q61H (classes E-H, IC50)
Chain of KRas G12D/Q61H double mutant (P01116-2 other isoform, or with tags, fused parts or gaps G12D/Q61H): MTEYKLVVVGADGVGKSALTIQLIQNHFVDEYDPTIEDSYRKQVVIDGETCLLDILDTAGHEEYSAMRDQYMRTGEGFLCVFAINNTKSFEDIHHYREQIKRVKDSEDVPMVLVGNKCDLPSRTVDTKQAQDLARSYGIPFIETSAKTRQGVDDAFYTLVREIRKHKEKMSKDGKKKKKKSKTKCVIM
In short: as §1

KRas Q61H mutant = KRas Q61H mutant (Homo sapiens (Human), UniProt P01116, Q61H); conditions: 20 μM compound; read-out: % Inhibition at 20 μM KRas Q61H
Chain of KRas Q61H mutant (P01116-2 other isoform, or with tags, fused parts or gaps Q61H): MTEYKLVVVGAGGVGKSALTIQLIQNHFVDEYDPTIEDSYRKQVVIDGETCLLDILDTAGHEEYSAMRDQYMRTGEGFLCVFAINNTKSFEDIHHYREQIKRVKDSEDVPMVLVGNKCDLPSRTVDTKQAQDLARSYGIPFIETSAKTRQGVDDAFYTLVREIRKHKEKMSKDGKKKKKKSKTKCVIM
In short: as §1

KRas wild type = KRas wild type (Homo sapiens (Human), UniProt P01116); conditions: 20 μM compound
Chain of KRas wild type (P01116-2 other isoform, or with tags, fused parts or gaps): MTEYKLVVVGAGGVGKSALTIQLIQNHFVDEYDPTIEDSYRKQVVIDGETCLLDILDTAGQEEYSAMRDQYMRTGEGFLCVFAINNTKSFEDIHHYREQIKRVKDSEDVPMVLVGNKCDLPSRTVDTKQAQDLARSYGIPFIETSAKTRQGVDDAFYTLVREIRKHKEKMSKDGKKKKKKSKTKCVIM
In short: as §1

[3] = read-out: % Inhibition at 20 μM KRas G12D
[4] = read-out: % Inhibition at 20 μM KRas G12C
[5] = read-out: % Inhibition at 20 μM KRas G12D Q61H
[6] = read-out: % Inhibition at 20 μM KRas wild type

Row | SMILES | inhibition at 20 µM (KRas G12D mutant protein; [3]) [%] | inhibition at 20 µM (KRas G12C mutant; [4]) [%] | inhibition at 20 µM [1] [%] | inhibition at 20 µM [2, 5] [%] | inhibition at 20 µM (KRas Q61H mutant) [%] | inhibition at 20 µM (KRas wild type; [6]) [%] | IC50 [2] [µM] | inhibition at 20 µM (KRas G12D mutant protein; KRas G12D, read-out: % Inhibition at 20 μM of K-Ras mutant and wild-type protein, KRas G12D) [%] | inhibition at 20 µM (KRas G12C mutant; KRas G12C, read-out: % Inhibition at 20 μM of K-Ras mutant and wild-type protein, KRas G12C) [%] | inhibition at 20 µM ([2]; KRas G12D/Q61H double mutant, read-out: % Inhibition at 20 μM of K-Ras mutant and wild-type protein, KRas G12D Q61H) [%] | inhibition at 20 µM (KRas wild type; KRas wild type, read-out: % Inhibition at 20 μM of K-Ras mutant and wild-type protein, KRas wild type) [%]
1 | Oc1nc(-c2ccccn2)nc2c(-c3ccccc3Cl)csc12 [drawing 2695] | 25 to 50 | 25 to 50 | 51 to 75 | 51 to 75 | 51 to 75 | 1 to 25 |  |  |  |  | 
2 | Oc1nc(-c2ccccn2)nc2c1ncn2-c1ccccc1 [drawing 2697] | 51 to 75 | 25 to 50 |  | 51 to 75 |  | 51 to 75 |  |  |  |  | 
3 | Oc1nc(-c2ccccn2)nc2scc(Br)c12 [drawing 2703] | 51 to 75 | 25 to 50 | 51 to 75 | 51 to 75 | 76 to 100 | 51 to 75 |  |  |  |  | 
4 | Oc1nc(-c2ccccn2)nc2sccc12 [drawing 2704] | 25 to 50 | 25 to 50 | 51 to 75 | 51 to 75 | 51 to 75 | 25 to 50 | 11 to 30 |  |  |  | 
5 | c1ccc(-c2nc(NCC3CCCO3)c3ccsc3n2)nc1 (stereo not drawn) [drawing 2705] | 51 to 75 | 51 to 75 |  | 25 to 50 |  | 25 to 50 |  |  |  |  | 
6 | COc1ccnc(-c2nc(O)c3ccsc3n2)c1 [drawing 2708] | 51 to 75 | 51 to 75 | 51 to 75 | 51 to 75 | 51 to 75 | 25 to 50 | 5 to 10 |  |  |  | 
7 | COCCC(C)Nc1nc(-c2ccccn2)nc2sccc12 (stereo not drawn) [drawing 2709] | 51 to 75 | 25 to 50 |  | 25 to 50 |  | 1 to 25 |  |  |  |  | 
8 | COCCCCNC(=O)c1csc2nc(-c3ccccn3)nc(N3CCN(C)CC3)c12 [drawing 2739] | 25 to 50 | 25 to 50 |  | 25 to 50 |  | 1 to 25 |  |  |  |  | 
9 | O=C(c1csc2c(O)nc(-c3ccccn3)nc12)N1CCOC(c2ccc(F)cc2)C1 (stereo not drawn) [drawing 2743] | 51 to 75 | 51 to 75 |  | 51 to 75 |  | 51 to 75 |  |  |  |  | 
10 | CC1CN(c2ccccc2)CCN1C(=O)c1csc2c(O)nc(-c3ccccn3)nc12 (stereo not drawn) [drawing 2761] | 76 to 100 | 51 to 75 | 76 to 100 | 51 to 75 | 76 to 100 | 25 to 50 | 5 to 10 |  |  |  | 
11 | COc1cccc(CN2CCN(C(=O)c3csc4c(O)nc(-c5ccccn5)nc34)CC2)c1 [drawing 2763] | 76 to 100 | 25 to 50 | 76 to 100 | 25 to 50 | 76 to 100 | 25 to 50 |  |  |  |  | 
12 | O=C(c1csc2c(O)nc(-c3ccccn3)nc12)N1CCOC(c2ccccc2Cl)C1 (stereo not drawn) [drawing 2769] | 25 to 50 | 25 to 50 | 76 to 100 | 51 to 75 | 76 to 100 | 51 to 75 | 5 to 10 |  |  |  | 
13 | COc1cccc(C2CN(C(=O)c3csc4c(O)nc(-c5ccccn5)nc34)CCN2)c1 (stereo not drawn) [drawing 2773] | 51 to 75 | 25 to 50 | 51 to 75 | 25 to 50 | 76 to 100 | 25 to 50 | 11 to 30 |  |  |  | 
14 | N#Cc1ccc(COCC(=O)Nc2nc(-c3ccccn3)nc3sccc23)cc1 [drawing 2799] | 76 to 100 | 25 to 50 | 76 to 100 | 25 to 50 | 76 to 100 | 25 to 50 | 11 to 30 |  |  |  | 
15 | COc1ccnc(-c2nc(O)c3c(Cl)csc3n2)c1 [drawing 2800] | 51 to 75 | 25 to 50 | 76 to 100 | 51 to 75 | 76 to 100 | 51 to 75 | 11 to 30 |  |  |  | 
16 | O=C(c1csc2c(O)nc(-c3ccccn3)nc12)N1CCNC(c2ccc(O)cc2)C1 (stereo not drawn) [drawing 2808] | 51 to 75 | 51 to 75 | 76 to 100 | 76 to 100 | 76 to 100 | 76 to 100 | 5 to 10 |  |  |  | 

Row | SMILES | inhibition at 20 µM (KRas G12D mutant protein; [3]) [%] | inhibition at 20 µM (KRas G12C mutant; [4]) [%] | inhibition at 20 µM [1] [%] | inhibition at 20 µM [2, 5] [%] | inhibition at 20 µM (KRas Q61H mutant) [%] | inhibition at 20 µM (KRas wild type; [6]) [%] | IC50 [2] [µM] | inhibition at 20 µM (KRas G12D mutant protein; KRas G12D, read-out: % Inhibition at 20 μM of K-Ras mutant and wild-type protein, KRas G12D) [%] | inhibition at 20 µM (KRas G12C mutant; KRas G12C, read-out: % Inhibition at 20 μM of K-Ras mutant and wild-type protein, KRas G12C) [%] | inhibition at 20 µM ([2]; KRas G12D/Q61H double mutant, read-out: % Inhibition at 20 μM of K-Ras mutant and wild-type protein, KRas G12D Q61H) [%] | inhibition at 20 µM (KRas wild type; KRas wild type, read-out: % Inhibition at 20 μM of K-Ras mutant and wild-type protein, KRas wild type) [%]
17 | NC(=O)Cn1cnc2nc(-c3ccccn3)nc(N3CCOCC3)c21 [drawing 2825] | 25 to 50 | 25 to 50 |  | 1 to 25 |  | 25 to 50 |  |  |  |  | 
18 | Cc1cnc(-c2ccccn2)nc1NC(=O)C1CCCc2cc(C#N)ccc21 (stereo not drawn) [drawing 2827] | 25 to 50 | 25 to 50 | 51 to 75 | 51 to 75 | 51 to 75 | 51 to 75 |  |  |  |  | 
19 | O=C(COCc1ccncc1)Nc1nc(-c2ccccn2)nc2sccc12 [drawing 2828] | 51 to 75 | 51 to 75 | 51 to 75 | 51 to 75 | 51 to 75 | 25 to 50 |  |  |  |  | 
20 | O=C(COCc1cccnc1)Nc1nc(-c2ccccn2)nc2sccc12 [drawing 2829] | 51 to 75 | 51 to 75 | 76 to 100 | 51 to 75 | 76 to 100 | 51 to 75 |  |  |  |  | 
21 | Nc1nc(-c2ccccn2)nc2ccsc12 [drawing 2834] | 1 to 25 | 25 to 50 | 25 to 50 | 25 to 50 | 51 to 75 | 1 to 25 |  |  |  |  | 
22 | Cc1cc2nc(-c3ccccn3)nc(N)c2s1 [drawing 2836] | 51 to 75 | 1 to 25 | 51 to 75 | 51 to 75 | 51 to 75 | 25 to 50 |  |  |  |  | 
23 | O=C(c1csc2c(O)nc(-c3ccccn3)nc12)N1CC2CC1CN2c1ccccc1 (stereo not drawn) [drawing 2838] | 51 to 75 | 25 to 50 | 76 to 100 | 76 to 100 | 76 to 100 | 25 to 50 |  |  |  |  | 
24 | O=C(c1csc2c(O)nc(-c3ccccn3)nc12)N1CCC(c2ccncc2)C1 (stereo not drawn) [drawing 2839] | 51 to 75 | 51 to 75 | 51 to 75 | 51 to 75 | 51 to 75 | 51 to 75 |  |  |  |  | 
25 | O=C(c1csc2c(O)nc(-c3ccccn3)nc12)N1CCC(c2cccc(O)c2)C1 (stereo not drawn) [drawing 2840] | 76 to 100 | 51 to 75 | 76 to 100 | 76 to 100 | 76 to 100 | 51 to 75 |  |  |  |  | 
26 | O=C(c1cc2nc(-c3ccccn3)nc(O)c2s1)N1CCN(c2ccccc2)CC1 [drawing 2841] | 51 to 75 | 51 to 75 | 51 to 75 | 51 to 75 | 51 to 75 | 51 to 75 |  |  |  |  | 
27 | CN(C)Cc1ccc(-c2csc3c(O)nc(-c4ccccn4)nc23)cc1F [drawing 2845] | 76 to 100 | 25 to 50 | 76 to 100 | 76 to 100 | 76 to 100 | 51 to 75 |  |  |  |  | 
28 | COCc1ccc(-c2csc3c(O)nc(-c4ccccn4)nc23)cc1F [drawing 2846] | 51 to 75 | 51 to 75 | 51 to 75 | 51 to 75 | 51 to 75 | 25 to 50 |  |  |  |  | 
29 | Oc1nc(-c2ccccn2)nc2c(-c3cc(Cl)cc(Cl)c3)csc12 [drawing 2848] | 25 to 50 | 25 to 50 | 1 to 25 | 25 to 50 | 25 to 50 | 1 to 25 |  |  |  |  | 
30 | Oc1nc(-c2ccccn2)nc2c(-c3cccc4c3OCO4)csc12 [drawing 2849] | 25 to 50 | 25 to 50 | 25 to 50 | 51 to 75 | 51 to 75 | 25 to 50 |  |  |  |  | 
31 | O=C(O)c1cc2nc(-c3ccccn3)nc(O)c2s1 [drawing 2850] | 51 to 75 | 51 to 75 | 51 to 75 | 51 to 75 | 51 to 75 | 51 to 75 |  |  |  |  | 
32 | COCCNc1nc(-c2nccn2C)nc2sc(-c3ccccc3)c(-c3ccccc3)c12 [drawing 3535] |  |  |  |  |  |  |  | 76 to 100 | 51 to 75 | 51 to 75 | 1 to 25
